Reference: paper PMC10176470, “Engaging a Non-catalytic Cysteine Residue Drives Potent and Selective Inhibition of Caspase-6” (Journal of the American Chemical Society, 2023)

Legend:
Test in all cases: SILAC proteomics / in-gel fluorescence, competition of probe 13-t labeling by 3a
[1] = target: proteins of HEK293T cells transiently overexpressing caspase-6 (Homo sapiens, UniProt P27635); details: Comp; protein RPL10 P27635
[2] = target: proteins of HEK293T cells transiently overexpressing caspase-6 (Homo sapiens, UniProt O43143); details: Comp; protein DHX15 O43143
[3] = target: proteins of HEK293T cells transiently overexpressing caspase-6 (Homo sapiens, UniProt Q13838); details: Comp; protein DDX39B Q13838
[4] = target: T1, proteins of HEK293T cells transiently overexpressing caspase-6 (Homo sapiens, UniProt O00410)
T1 sequence (O00410 1-1097): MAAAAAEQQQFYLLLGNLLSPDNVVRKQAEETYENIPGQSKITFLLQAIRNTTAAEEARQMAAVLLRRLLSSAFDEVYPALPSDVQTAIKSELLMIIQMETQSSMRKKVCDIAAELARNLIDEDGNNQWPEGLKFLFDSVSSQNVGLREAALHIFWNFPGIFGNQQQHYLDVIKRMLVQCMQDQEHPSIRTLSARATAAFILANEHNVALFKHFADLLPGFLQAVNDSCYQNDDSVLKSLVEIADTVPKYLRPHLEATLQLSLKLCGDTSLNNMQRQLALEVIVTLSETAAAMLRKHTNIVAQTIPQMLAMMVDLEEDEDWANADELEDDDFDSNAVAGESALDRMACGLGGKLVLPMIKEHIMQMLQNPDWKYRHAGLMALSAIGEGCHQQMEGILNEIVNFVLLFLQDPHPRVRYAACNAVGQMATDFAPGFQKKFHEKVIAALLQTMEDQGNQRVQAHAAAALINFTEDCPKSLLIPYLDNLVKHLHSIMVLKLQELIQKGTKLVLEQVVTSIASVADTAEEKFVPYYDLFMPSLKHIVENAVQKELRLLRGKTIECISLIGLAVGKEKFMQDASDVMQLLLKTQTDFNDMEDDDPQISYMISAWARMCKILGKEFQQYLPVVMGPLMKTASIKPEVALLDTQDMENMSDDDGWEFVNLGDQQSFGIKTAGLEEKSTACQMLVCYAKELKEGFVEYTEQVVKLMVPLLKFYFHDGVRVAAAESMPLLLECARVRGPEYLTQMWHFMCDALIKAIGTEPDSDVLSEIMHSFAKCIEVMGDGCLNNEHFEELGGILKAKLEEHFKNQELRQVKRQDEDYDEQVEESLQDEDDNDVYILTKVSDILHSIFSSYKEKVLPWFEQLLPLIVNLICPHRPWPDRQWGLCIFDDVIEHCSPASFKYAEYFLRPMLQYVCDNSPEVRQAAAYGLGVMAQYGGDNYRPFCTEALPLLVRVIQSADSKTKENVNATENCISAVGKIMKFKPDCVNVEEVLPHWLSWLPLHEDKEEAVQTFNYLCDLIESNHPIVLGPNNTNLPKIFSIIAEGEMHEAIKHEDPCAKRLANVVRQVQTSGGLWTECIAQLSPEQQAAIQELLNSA

[5] = target: proteins of HEK293T cells transiently overexpressing caspase-6 (Homo sapiens, UniProt P62241); details: Comp; protein RPS8 P62241
[6] = target: proteins of HEK293T cells transiently overexpressing caspase-6 (Homo sapiens, UniProt Q86VP6); details: Comp; protein CAND1 Q86VP6
[7] = target: proteins of HEK293T cells transiently overexpressing caspase-6 (Homo sapiens, UniProt P10809); details: Comp; protein HSPD1 P10809
[8] = target: T2, proteins of HEK293T cells transiently overexpressing caspase-6 (Homo sapiens, UniProt P04075); details: Comp; protein ALDOA P04075
T2 sequence (P04075 1-364): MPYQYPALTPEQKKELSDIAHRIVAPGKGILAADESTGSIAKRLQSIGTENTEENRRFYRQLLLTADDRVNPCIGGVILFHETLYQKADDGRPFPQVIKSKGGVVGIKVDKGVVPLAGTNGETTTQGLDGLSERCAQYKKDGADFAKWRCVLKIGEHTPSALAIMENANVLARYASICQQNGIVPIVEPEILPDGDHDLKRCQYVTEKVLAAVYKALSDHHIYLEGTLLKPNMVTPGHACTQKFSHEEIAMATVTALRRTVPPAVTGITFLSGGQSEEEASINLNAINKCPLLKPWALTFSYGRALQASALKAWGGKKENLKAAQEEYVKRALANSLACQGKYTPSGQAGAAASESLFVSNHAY

[9] = target: proteins of HEK293T cells transiently overexpressing caspase-6 (Homo sapiens, UniProt P13804); details: Comp; protein ETFA P13804
[10] = target: proteins of HEK293T cells transiently overexpressing caspase-6 (Homo sapiens, UniProt P46782); details: Comp; protein RPS5 P46782
[11] = protein IPO5 (O00410), Exp Comp, analysis C6, p 0.0039, 9 peptides

Chain of proteins of HEK293T cells transiently overexpressing caspase-6 (Homo sapiens, UniProt P13804) (P13804 20-333): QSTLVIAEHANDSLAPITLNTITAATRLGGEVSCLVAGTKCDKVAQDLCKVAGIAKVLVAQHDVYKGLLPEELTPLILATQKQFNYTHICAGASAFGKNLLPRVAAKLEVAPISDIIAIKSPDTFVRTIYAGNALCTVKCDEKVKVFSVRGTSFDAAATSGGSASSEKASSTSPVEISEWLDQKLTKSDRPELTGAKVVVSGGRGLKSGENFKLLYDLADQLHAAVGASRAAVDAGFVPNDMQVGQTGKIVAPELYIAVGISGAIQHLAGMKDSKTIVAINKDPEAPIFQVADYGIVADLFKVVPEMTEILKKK
Chain of proteins of HEK293T cells transiently overexpressing caspase-6 (Homo sapiens, UniProt P10809) (P10809 27-573): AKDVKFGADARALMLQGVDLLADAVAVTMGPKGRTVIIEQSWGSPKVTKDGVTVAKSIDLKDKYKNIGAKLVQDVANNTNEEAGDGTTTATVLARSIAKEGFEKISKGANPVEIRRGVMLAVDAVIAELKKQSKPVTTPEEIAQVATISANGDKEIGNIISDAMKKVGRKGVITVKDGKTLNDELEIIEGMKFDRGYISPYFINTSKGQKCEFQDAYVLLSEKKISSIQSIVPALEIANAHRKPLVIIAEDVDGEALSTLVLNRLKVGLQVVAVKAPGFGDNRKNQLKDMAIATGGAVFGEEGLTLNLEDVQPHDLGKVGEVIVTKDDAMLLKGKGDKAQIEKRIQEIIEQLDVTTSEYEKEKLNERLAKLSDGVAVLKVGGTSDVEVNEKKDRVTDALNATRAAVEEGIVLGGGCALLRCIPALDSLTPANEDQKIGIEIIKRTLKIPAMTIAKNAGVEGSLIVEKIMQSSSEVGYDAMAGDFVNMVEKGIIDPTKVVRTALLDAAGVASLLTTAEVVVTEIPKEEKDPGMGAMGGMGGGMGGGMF
Chain of proteins of HEK293T cells transiently overexpressing caspase-6 (Homo sapiens, UniProt Q13838) (Q13838 whole entry): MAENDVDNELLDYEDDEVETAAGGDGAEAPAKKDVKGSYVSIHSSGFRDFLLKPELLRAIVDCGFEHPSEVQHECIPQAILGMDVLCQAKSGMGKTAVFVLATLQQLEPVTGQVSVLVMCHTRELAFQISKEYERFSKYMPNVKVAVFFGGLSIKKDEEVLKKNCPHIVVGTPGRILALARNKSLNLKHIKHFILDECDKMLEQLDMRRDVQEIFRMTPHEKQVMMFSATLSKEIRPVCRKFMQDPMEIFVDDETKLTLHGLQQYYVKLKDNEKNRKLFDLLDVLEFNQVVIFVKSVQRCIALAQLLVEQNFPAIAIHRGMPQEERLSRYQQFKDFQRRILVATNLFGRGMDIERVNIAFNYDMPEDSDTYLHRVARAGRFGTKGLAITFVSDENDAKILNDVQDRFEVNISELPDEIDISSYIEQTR
Chain of proteins of HEK293T cells transiently overexpressing caspase-6 (Homo sapiens, UniProt Q86VP6) (Q86VP6 whole entry): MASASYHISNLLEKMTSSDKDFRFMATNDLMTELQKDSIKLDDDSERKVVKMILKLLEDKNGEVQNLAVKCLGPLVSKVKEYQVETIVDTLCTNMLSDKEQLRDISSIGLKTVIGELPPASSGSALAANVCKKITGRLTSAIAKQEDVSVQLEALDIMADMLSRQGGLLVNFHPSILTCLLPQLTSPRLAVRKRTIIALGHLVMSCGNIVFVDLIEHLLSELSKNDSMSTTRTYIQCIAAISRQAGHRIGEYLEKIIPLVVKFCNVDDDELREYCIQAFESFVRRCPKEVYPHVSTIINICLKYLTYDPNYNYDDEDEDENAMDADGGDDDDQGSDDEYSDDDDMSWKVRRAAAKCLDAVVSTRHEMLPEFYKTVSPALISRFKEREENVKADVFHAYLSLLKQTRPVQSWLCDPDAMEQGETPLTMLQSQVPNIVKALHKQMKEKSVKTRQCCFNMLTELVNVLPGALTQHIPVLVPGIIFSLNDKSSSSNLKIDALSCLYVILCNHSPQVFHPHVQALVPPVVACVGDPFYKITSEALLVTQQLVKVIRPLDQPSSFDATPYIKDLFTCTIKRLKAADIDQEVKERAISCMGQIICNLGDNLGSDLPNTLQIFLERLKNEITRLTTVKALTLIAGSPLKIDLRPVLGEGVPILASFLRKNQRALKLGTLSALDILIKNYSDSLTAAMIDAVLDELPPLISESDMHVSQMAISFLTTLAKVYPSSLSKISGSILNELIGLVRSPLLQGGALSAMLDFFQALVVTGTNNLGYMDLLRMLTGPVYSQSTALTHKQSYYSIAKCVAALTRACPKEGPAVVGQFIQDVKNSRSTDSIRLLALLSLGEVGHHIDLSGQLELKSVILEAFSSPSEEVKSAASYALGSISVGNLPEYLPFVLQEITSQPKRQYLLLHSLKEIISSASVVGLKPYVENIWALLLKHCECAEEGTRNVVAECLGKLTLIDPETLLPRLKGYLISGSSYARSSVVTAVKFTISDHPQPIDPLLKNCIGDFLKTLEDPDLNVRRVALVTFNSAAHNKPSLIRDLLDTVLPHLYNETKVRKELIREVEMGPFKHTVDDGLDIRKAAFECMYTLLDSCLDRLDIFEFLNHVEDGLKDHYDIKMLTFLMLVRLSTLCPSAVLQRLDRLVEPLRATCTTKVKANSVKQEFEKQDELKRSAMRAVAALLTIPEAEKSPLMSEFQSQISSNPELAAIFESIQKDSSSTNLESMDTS
Chain of proteins of HEK293T cells transiently overexpressing caspase-6 (Homo sapiens, UniProt O43143) (O43143 whole entry): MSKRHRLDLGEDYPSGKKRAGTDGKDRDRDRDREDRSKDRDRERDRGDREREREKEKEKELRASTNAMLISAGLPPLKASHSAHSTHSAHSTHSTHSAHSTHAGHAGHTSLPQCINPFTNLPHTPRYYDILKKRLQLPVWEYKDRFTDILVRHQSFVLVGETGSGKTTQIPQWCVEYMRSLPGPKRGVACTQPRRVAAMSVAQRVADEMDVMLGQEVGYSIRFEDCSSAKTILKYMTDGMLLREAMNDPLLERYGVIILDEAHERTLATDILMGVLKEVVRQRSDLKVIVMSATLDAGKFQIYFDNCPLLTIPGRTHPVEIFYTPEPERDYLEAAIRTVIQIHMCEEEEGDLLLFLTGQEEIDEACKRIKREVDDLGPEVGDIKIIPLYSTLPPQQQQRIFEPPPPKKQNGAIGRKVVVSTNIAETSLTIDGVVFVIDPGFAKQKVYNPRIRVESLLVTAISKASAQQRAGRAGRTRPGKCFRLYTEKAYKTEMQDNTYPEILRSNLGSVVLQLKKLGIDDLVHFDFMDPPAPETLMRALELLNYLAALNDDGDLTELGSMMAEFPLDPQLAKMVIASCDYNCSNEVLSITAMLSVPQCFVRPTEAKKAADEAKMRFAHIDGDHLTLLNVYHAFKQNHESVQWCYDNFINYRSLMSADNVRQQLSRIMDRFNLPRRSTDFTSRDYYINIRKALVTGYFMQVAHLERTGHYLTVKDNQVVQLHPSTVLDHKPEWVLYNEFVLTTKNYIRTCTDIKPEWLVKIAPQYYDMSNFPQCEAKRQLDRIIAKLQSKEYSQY

C=CS(=O)(=O)N1C[C@H](C(=O)Nc2ccc(OC(F)(F)F)cc2)C[C@@H](c2ccccc2)C1 [3a]
enrich.exp.med [1]: 0.809
enrich.exp.med [2]: 0.7591
enrich.exp.med [3]: 0.6915
enrich.exp.med ([4]; Comp, protein IPO5 O00410): 1
enrich.exp.med.lin [4, 11]: 2
enrich.exp.med.log2 [4, 11]: 1
enrich.exp.med [5]: 0.6264
enrich.exp.med [6]: 0.6553
enrich.exp.med [7]: 0.6402
enrich.exp.med [8]: 0.6768
enrich.exp.med [9]: 0.7888
enrich.exp.med [10]: 0.6107
